Laboratory results published in patent publication US8415359B2, “Phenylpyrrole derivative” (Daiichi Sankyo Company, Limited, priority 2008, dated 2013).

Molecular target: T1, human pancreatic GK (human glucokinase variant 1, GST-fused protein) (Homo sapiens, UniProt P35557)
T1 construct: made in house; host or cells: Escherichia coli (such as BL21 or JM109)
T1 sequence (P35557 1-465): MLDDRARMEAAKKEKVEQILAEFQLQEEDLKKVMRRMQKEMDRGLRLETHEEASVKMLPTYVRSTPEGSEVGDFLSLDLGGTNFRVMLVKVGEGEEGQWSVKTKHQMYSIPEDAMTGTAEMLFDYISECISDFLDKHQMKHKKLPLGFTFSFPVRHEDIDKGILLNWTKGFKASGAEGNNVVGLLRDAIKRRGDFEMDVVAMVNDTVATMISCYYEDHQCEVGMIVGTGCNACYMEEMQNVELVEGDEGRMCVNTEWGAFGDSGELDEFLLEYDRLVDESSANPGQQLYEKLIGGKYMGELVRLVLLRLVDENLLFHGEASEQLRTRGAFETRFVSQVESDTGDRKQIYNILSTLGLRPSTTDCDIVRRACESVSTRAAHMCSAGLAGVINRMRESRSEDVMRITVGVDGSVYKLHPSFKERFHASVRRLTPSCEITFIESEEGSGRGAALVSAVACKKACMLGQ
Assay: GK activity test (GK activation rate)
Type: biochemical
Details: test compound 1 μM; glucose 5 mM; 30 min at room temperature; absorbance at 340 nm with test compound / without test compound
Method: cDNA encoding human pancreatic GK polypeptide (GenBank Accession No. NM_000162, human glucokinase variant 1) was cloned from a human cDNA library by polymerase chain reaction (PCR), and introduced into a glutathione S-transferase (GST)-fused protein expression vector (GEX4T, GE Healthcare Bioscience). The vector was introduced into Escherichia coli (such as BL21 or JM109, Invitrogen), and the transformed E. coli was cultured overnight at 37° C. followed by recovery of the cells. After freezing and thawing the recovered cells, the cells were suspended in phosphate buffer containing Triton-X at a final concentration of 1% followed by disrupting the cells with an ultrasonic homogenizer. The supernatant obtained by low-speed centrifugation treatment of the homogenate (10,000×g, 30 minutes) was further subjected to high-speed centrifugation (100,000×g, 10 minutes) followed by recovering the supernatant and purifying the fused protein using a GST fused protein purification system (Bulk GST Purification Module, GE Healthcare Bioscience). The GK fused protein was divided into smaller aliquots and stored at −80° C.
GK activity was measured using the GK purified in (1) above. More specifically, an enzyme solution was prepared by adding the purified GK of (1) above and glucose-6-phosphate dehydrogenase (Sigma) to solution 1 of a glucose assay kit (D-Glucose UV Method, Roche Diagnostics). The enzyme solution, a test compound diluent and glucose (final concentration: 5 mM) were mixed in a 96-well ELISA plate, and allowed to react for 30 minutes at room temperature. Following completion of the reaction, absorbance at a wavelength of 340 nm was measured using SpectraMax Plus (Molecular Probe). Furthermore, unreacted (when glucose was not added) absorbance was used for the background.
GK activation rates were indicated with values represented by the following numerical formula: (absorbance after reacting for 30 minutes when test compound added)/(absorbance after reacting for 30 minutes when test compound not added).

| SMILES | GK Activation Rate |
| --- | --- |
| COC[C@H](C)Oc1cc(Oc2ncc(C(=O)N3CCC3)cc2Cl)cc(-c2ccc(-c3nccs3)[nH]2)c1 [Example 60, 5-(Azetidin-1-ylcarbonyl)-3-chloro-2-{3-[(1S)-2-methoxy-1-methylethoxy]-5-[5-(1,3-thiazol-2-yl)-1,1-pyrrol-2-yl]phenoxy}pyridine] | 2.0 |
| COC[C@H](C)Oc1cc(Oc2cnc(S(C)(=O)=O)cn2)cc(-c2ccc(C3=N[C@H](CO)[C@H](C)O3)[nH]2)c1 [Example 110, {(4R,5S)-2-[5-(3-{[(2S)-1-Methoxypropan-2-yl]oxy}-5-{[5-(methylsulfonyl)pyrazin-2-yl]oxy}phenyl)-1H-pyrrol-2-yl]-5-methyl-4,5-dihydro-1,3-oxazol-4-yl}methanol] | 2.4 |
| COC[C@H](C)Oc1cc(Oc2ccc(S(C)(=O)=O)cc2)cc(-c2ccc(C3=NCCS3)[nH]2)c1 [Example 25, 2-(5-{3-[(1S)-2-Methoxy-1-methylethoxy]-5-[4-(methylsulfonyl)phenoxy]phenyl}-1H-pyrrol-2-yl)-4,5-dihydro-1,3-thiazole] | 2.0 |
| Cc1nnc(-c2ccc(-c3cc(Oc4ccc(C(=O)N5CCC5)cc4F)cc(O[C@@H](C)CO)c3)[nH]2)o1 [Example 67, (2S)-2-{3-[4-(Azetidin-1-ylcarbonyl)-2-fluorophenoxy]-5-[5-(5-methyl-1,3,4-oxadiazol-2-yl)-1H-pyrrol-2-yl]phenoxy}propan-1-ol] | 1.7 |
| C[C@H]1CN=C(c2ccc(-c3cc(Oc4ccc(S(C)(=O)=O)cc4)cc(O[C@@H](C)CO)c3)[nH]2)O1 [Example 32, (2S)-2-(3-{5-[(5S)-5-Methyl-4,5-dihydro-1,3-oxazol-2-yl]-1H-pyrrol-2-yl}-5-[4-(methylsulfonyl)phenoxy]phenoxy)propan-1-ol] | 2.0 |
| COC[C@H](C)Oc1cc(Oc2ccc(S(C)(=O)=O)nc2)cc(-c2ccc(C3=NC[C@H](C)O3)[nH]2)c1 [Example 76, 5-(3-[(1S)-2-Methoxy-1-methylethoxy]-5-{5-[(5S)-5-methyl-4,5-dihydro-1,3-oxazol-2-yl]-1,4-pyrrol-2-yl}phenoxy)-2-(methylsulfonyl)pyridine] | 3.0 |
| C[C@H]1CN=C(c2ccc(-c3cc(Oc4ncc(C(=O)N5CCC5)cc4Cl)cc(O[C@@H](C)CO)c3)[nH]2)O1 [Example 75, (2S)-2-(3-{[5-(Azetidin-1-ylcarbonyl)-3-chloropyridin-2-yl]oxy}-5-{5-[(5S)-5-methyl-4,5-dihydro-1,3-oxazol-2-yl]-1H-pyrrol-2-yl}phenoxy)propan-1-ol] | 1.8 |
| C[C@@H]1COC(c2ccc(-c3cc(Oc4cnc(S(C)(=O)=O)cn4)cc(O[C@@H](C)CO)c3)[nH]2)=N1 [Example 107, (2S)-2-(3-{5-[(4R)-4-Methyl-4,5-dihydro-1,3-oxazol-2-yl]-1H-pyrrol-2-yl}-5-{[5-(methylsulfonyl)pyrazin-2-yl]oxy}phenoxy)propan-1-ol] | 2.0 |
| C[C@H]1CN=C(c2ccc(-c3cc(Oc4ccc(C(=O)N5CCC5)cc4F)cc(O[C@@H](C)CO)c3)[nH]2)O1 [Example 70, (2S)-2-(3-[4-(Azetidin-1-ylcarbonyl)-2-fluorophenoxy]-5-{5-[(5S)-5-methyl-4,5-dihydro-1,3-oxazol-2-yl}-1H-pyrrol-2-yl]phenoxy)propan-1-ol] | 1.9 |
| C[C@@H]1OC(c2ccc(-c3cc(Oc4ccc(S(C)(=O)=O)nc4)cc(O[C@@H](C)CO)c3)[nH]2)=N[C@@H]1C [Example 88, (2S)-2-(3-{5-[(4R,5S)-4,5-Dimethyl-4,5-dihydro-1,3-oxazol-2-yl]-1H-pyrrol-2-yl}-5-{[6-(methylsulfonyl)pyridin-3-yl]oxy}phenoxy)propan-1-ol] | 2.4 |
| COC[C@H](C)Oc1cc(Oc2ccc(C(=O)N3CCC3)cc2F)cc(-c2ccc(C3=NCCO3)[nH]2)c1 [Example 68, 2-(5-{3-[4-(Azetidin-1-ylcarbonyl)-2-fluorophenoxy]-5-[(1S)-2-methoxy-1-methylethoxy]phenyl}-1H-pyrrol-2-yl)-4,5-dihydro-1,3-oxazole] | 2.0 |
| COC[C@H](C)Oc1cc(Oc2ccc(C(=O)N3CCC3)cc2F)cc(-c2ccc(-c3nccs3)[nH]2)c1 [Example 41, 2-(5-{3-[4-(Azetidin-1-ylcarbonyl)-2-fluorophenoxy]-5-[(1S)-2-methoxy-1-methylethoxy]phenyl}-1H-pyrrol-2-yl)-1,3-thiazole] | 2.1 |
| COC[C@H](C)Oc1cc(Oc2ccc(S(C)(=O)=O)cc2)cc(-c2ccc(C3=NCCO3)[nH]2)c1 [Example 20, 2-(5-{3-[(1S)-2-Methoxy-1-methylethoxy]-5-[4-(methylsulfonyl)phenoxy]phenyl}-1H-pyrrol-2-yl)-4,5-dihydro-1,3-oxazole] | 2.0 |
| COC[C@H](C)Oc1cc(Oc2ccc(S(C)(=O)=O)nc2)cc(-c2ccc(C3=NC[C@H](CO)O3)[nH]2)c1 [Example 82, {(5R)-2-[5-(3-[(1S)-2-Methoxy-1-methylethoxy]-5-{[6-(methylsulfonyl)pyridin-3-yl]oxy}phenyl)-1H-pyrrol-2-yl]-4,5-dihydro-1,3-oxazol-5-yl}methanol] | 2.7 |
| COC[C@H](C)Oc1cc(Oc2ccc(S(C)(=O)=O)nc2)cc(-c2ccc(C3=N[C@H](C)[C@H](CO)O3)[nH]2)c1 [Example 89, {(4R,5R)-2-[5-(3-[(1S)-2-Methoxy-1-methylethoxy]-5-{[6-(methylsulfonyl)pyridin-3-yl]oxy}phenyl)-1H-pyrrol-2-yl]-4-methyl-4,5-dihydro-1,3-oxazol-5-yl}methanol] | 2.3 |
| COC[C@H](C)Oc1cc(Oc2cnc(S(C)(=O)=O)cn2)cc(-c2ccc(C3=N[C@H]([C@H](C)O)CO3)[nH]2)c1 [Example 112, (1S)-1-{(4S)-2-[5-(3-{[(25)-1-Methoxypropan-2-yl]oxy}-5-{[5-(methylsulfonyl)pyrazin-2-yl]oxy}phenyl)-1H-pyrrol-2-yl]-4,5-dihydro-1,3-oxazol-4-yl}ethanol] | 2.4 |
| C[C@@H](CO)Oc1cc(Oc2ccc(S(C)(=O)=O)cc2)cc(-c2ccc(-c3nccs3)[nH]2)c1 [Example 2, (2S)-2-{3-[4-(Methylsulfonyl)phenoxy]-5-[5-(1,3-thiazol-2-yl)-1H-pyrrol-2-yl]phenoxy}propan-1-ol] | 1.9 |
| COC[C@H](C)Oc1cc(Oc2ccc(S(C)(=O)=O)cc2)cc(-c2ccc(C3=NC[C@H](CO)O3)[nH]2)c1 [Example 35, [(5R)-2-(5-{3-[(1S)-2-Methoxy-1-methylethoxy]-5-[4-(methylsulfonyl)phenoxy]phenyl}-1H-pyrrol-2-yl)-4,5-dihydro-1,3-oxazol-5-yl]methanol] | 2.1 |
| C[C@@H]1OC(c2ccc(-c3cc(Oc4cnc(S(C)(=O)=O)cn4)cc(O[C@@H](C)CO)c3)[nH]2)=N[C@@H]1C [Example 109, (2S)-2-(3-{5-[(4R,5S)-4,5-Dimethyl-4,5-dihydro-1,3-oxazol-2-yl]-1H-pyrrol-2-yl}-5-{[5-(methylsulfonyl)pyrazin-2-yl]oxy}phenoxy)propan-1-ol] | 2.2 |
| CC[C@@H]1COC(c2ccc(-c3cc(Oc4ccc(S(C)(=O)=O)nc4)cc(O[C@@H](C)CO)c3)[nH]2)=N1 [Example 85, (2S)-2-(3-{5-[(4R)-4-Ethyl-4,5-dihydro-1,3-oxazol-2-yl]-1H-pyrrol-2-yl}-5-{[6-(methylsulfonyl)pyridin-3-yl]oxy}phenoxy)propan-1-ol] | 2.9 |
| C[C@H]1CN=C(c2ccc(-c3cc(Oc4ccc(S(C)(=O)=O)nc4)cc(O[C@@H](C)CO)c3)[nH]2)O1 [Example 77, (2S)-2-(3-{5-[(5S)-5-Methyl-4,5-dihydro-1,3-oxazol-2-yl]-1H-pyrrol-2-yl}-5-{[6-(methylsulfonyl)pyridin-3-yl]oxy}phenoxy)propan-1-ol] | 2.6 |
| COC[C@H](C)Oc1cc(Oc2ccc(S(C)(=O)=O)nc2)cc(-c2ccc(C3=N[C@H](CO)CO3)[nH]2)c1 [Example 86, {(4R)-2-[5-(3-[(1S)-2-Methoxy-1-methylethoxy]-5-{[6-(methylsulfonyl)pyridin-3-yl]oxy}phenyl)-1H-pyrrol-2-yl]-4,5-dihydro-1,3-oxazol-4-yl}methanol] | 2.5 |
